What follows are molecules tested against IBAT (Mus musculus (Mouse), UniProt P70172) (assay: 75SeHCAT intestinal absorption in ApoE knock out mice (IBAT inhibitory effect)). Details: po, oral dose 0.156 μmol/kg, 75SeHCAT absorption over 24 hours.
Assay type: in vivo
Method: Species Mouse; Strain ApoE knock out; Sub strain C57BL/6; Sex Female; Total No. of animals 70; Body weight range 20 g to 22 g; Supplier Möllegaard's Breeding (Skensved, Denmark); Identification method ID cards (bar code).
Acclimatisation At least one week at the Section of Laboratory; Animal Resource at AstraZeneca; Housing conditions Kept five by five in cages (Makrolon III, 7 dm2) in a room with regulated temperature (22° C.), relative humidity (40% to 60%) and a 12/12 hours light/dark cycle. Diet Free access to R3 pellets (Lactamin, Vadstena, Sweden) during the housing and experimental period. Water, free access to tap water during the housing and experimental period.
The animals were orally administered vehicle (n=3) or the compound of Example 14 (0.156 (n=3), 0.625 (n=3) or 2.5 μmol/kg (n=3)) at 13:00 o'clock on the experimental day. Thirty minutes later, a trace amount of ^75SeHCAT (^75Se-homo-tauro-cholic acid) ([…] per 0.1 mL per mouse) was orally given to each mouse. Twenty-four hours after ^75SeHCAT administration, the animals were killed by CO2 inhalation. At sacrifice, the gall bladder and the whole intestine were removed, and the faeces during the 24-hour period after ^75SeHCAT administration was collected for each mouse. The gamma radioactivities of ^75SeHCAT in the faeces and in the gall bladder-intestine were separately counted by 1282 CompuGamma CS Gamma counter (Wallac oy, Turku, Finland). The stability as well as the quantity of the ^75SeHCAT administered to each mouse, were controlled with an additional ^75SeHCAT aliquot following the same experimental process as other tested samples in the study.
The sum of the gamma counts from both the faeces and the gall bladder-intestine was considered as the total recovered ^75SeHCAT, which was averaged around 85% of the total ^75SeHCAT administered to each mouse. Of the recovered radioactivity of ^75SeHCAT, the percentage of the ^75SeHCAT detected in the faeces was considered as the faecal excretion while that in the gall bladder-intestine as body retention. Inhibitory effect of the compound of Example 14 on ^75SeHCAT intestinal absorption was calculated following the ^75SeHCAT body retention and the faecal excretion, and the ED50 of the compound was estimated following the dose-effect curve.
The mean IBAT inhibitory effect (%) at a dose (μmol/kg): 0.156 was determined for the compounds of examples 1-14 and is reported in Table 1.

Sequence of IBAT (P70172 whole entry): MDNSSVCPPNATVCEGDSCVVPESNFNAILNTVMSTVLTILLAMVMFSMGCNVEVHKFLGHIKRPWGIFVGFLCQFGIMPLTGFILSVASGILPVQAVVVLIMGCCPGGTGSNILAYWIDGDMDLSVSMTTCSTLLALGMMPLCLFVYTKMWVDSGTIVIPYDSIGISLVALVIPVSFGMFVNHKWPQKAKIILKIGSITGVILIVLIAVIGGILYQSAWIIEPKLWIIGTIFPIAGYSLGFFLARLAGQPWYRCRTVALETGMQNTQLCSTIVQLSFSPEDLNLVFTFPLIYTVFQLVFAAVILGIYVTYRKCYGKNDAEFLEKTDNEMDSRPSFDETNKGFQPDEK

| Structure (SMILES) | inhibition at 0.156 µmol/kg [%] |
| --- | --- |
| CCCCC1(CCCC)CN(c2ccccc2)c2cc(SC)c(OCC(=O)N[C@@H](C(=O)NCC(=O)O)c3ccccc3)cc2S(=O)(=O)N1 [Example 1, 1,1-Dioxo-3,3-dibutyl-5-phenyl-7-methylthio-8-(N—{(R)-α-[N-(carboxymethyl)carbamoyl]benzyl}carbamoylmethoxy)-2,3,4,5-tetrahydro-1,2,5-benzothiadiazepine] | 43 |
| CCCCC1(CCCC)CN(c2ccccc2)c2cc(SC)c(OCC(=O)N[C@@H](C(=O)N[C@@H](CC)C(=O)O)c3ccccc3)cc2S(=O)(=O)N1 [Example 3, 1,1-Dioxo-3,3-dibutyl-5-phenyl-7-methylthio-8-(N—{(R)-α-[N—((S)-1-carboxypropyl)carbamoyl]benzyl}carbamoylmethoxy)-2,3,4,5-tetrahydro-1,2,5-benzothiadiazepine] | 63 |
| CCCCC1(CCCC)CN(c2ccccc2)c2cc(SC)c(OCC(=O)N[C@@H](C(=O)N[C@@H](CSC)C(=O)O)c3ccccc3)cc2S(=O)(=O)N1 [Example 4, 1,1-Dioxo-3,3-dibutyl-5-phenyl-7-methylthio-8-(N—{(R)-α-[N—((R)-1-carboxy-2-methylthioethyl)carbamoyl]benzyl}carbamoylmethoxy)-2,3,4,5-tetrahydro-1,2,5-benzothiadiazepine] | 63 |
| CCCCC1(CCCC)CN(c2ccccc2)c2cc(SC)c(OCC(=O)N[C@@H](C(=O)N[C@@H](CC)C(=O)O)c3ccc(O)cc3)cc2S(=O)(=O)N1 [Example 5, 1,1-Dioxo-3,3-dibutyl-5-phenyl-7-methylthio-8-(N—{(R)-α-[N—((S)-1-carboxypropyl)carbamoyl]-4-hydroxybenzyl}carbamoylmethoxy)-2,3,4,5-tetrahydro-1,2,5-benzothiadiazepine] | 74 |
| CCCCC1(CCCC)CN(c2ccccc2)c2cc(SC)c(OCC(=O)N[C@@H](C(=O)N[C@@H](CSC)C(=O)O)c3ccc(O)cc3)cc2S(=O)(=O)N1 [Example 6, 1,1-Dioxo-3,3-dibutyl-5-phenyl-7-methylthio-8-(N—{(R)-α-[N—((R)-1-carboxy-2-methylthio-ethyl)carbamoyl]-4-hydroxybenzyl}carbamoylmethoxy)-2,3,4,5-tetra hydro-1,2,5-benzothiadiazepine] | 59 |
| CCCCC1(CCCC)CN(c2ccccc2)c2cc(SC)c(OCC(=O)N[C@@H](C(=O)N[C@H](C(=O)O)C(C)C)c3ccccc3)cc2S(=O)(=O)N1 [Example 7, 1,1-Dioxo-3,3-dibutyl-5-phenyl-7-methylthio-8-(N—{(R)-α-[N—((S)-1-carboxy-2-methylpropyl)carbamoyl]benzyl}carbamoylmethoxy)-2,3,4,5-tetrahydro-1,2,5-benzothiadiazepine] | 66 |
| CCCCC1(CCCC)CN(c2ccccc2)c2cc(SC)c(OCC(=O)N[C@@H](C(=O)N[C@H](C(=O)O)[C@@H](C)O)c3ccc(O)cc3)cc2S(=O)(=O)N1 [Example 8, 1,1-Dioxo-3,3-dibutyl-5-phenyl-7-methylthio-8-(N—{(R)-α-[N—((S)-1-carboxy-2-(R)-hydroxypropyl)carbamoyl]-4-hydroxybenzyl}carbamoylmethoxy)-2,3,4,5-tetrahydro-1,2,5-benzothiadiazepine] | 46 |
| CCCCC1(CCCC)CN(c2ccccc2)c2cc(SC)c(OCC(=O)N[C@@H](C(=O)N[C@@H](CCC)C(=O)O)c3ccc(O)cc3)cc2S(=O)(=O)N1 [Example 9, 1,1-Dioxo-3,3-dibutyl-5-phenyl-7-methylthio-8-(N—{(R)-α-[N—((S)-1-carboxybutyl)carbamoyl]-4-hydroxybenzyl}carbamoylmethoxy)-2,3,4,5-tetrahydro-1,2,5-benzothiadiazepine] | 67 |
| CCCCC1(CCCC)CN(c2ccccc2)c2cc(SC)c(OCC(=O)N[C@@H](C(=O)N[C@@H](C)C(=O)O)c3ccccc3)cc2S(=O)(=O)N1 [Example 10, 1,1-Dioxo-3,3-dibutyl-5-phenyl-7-methylthio-8-(N—{(R)-α-[N—((S)-1-carboxyethyl)carbamoyl]benzyl}carbamoylmethoxy)-2,3,4,5-tetrahydro-1,2,5-benzothiadiazepine] | 68 |
| CCCCC1(CCCC)CN(c2ccccc2)c2cc(SC)c(OCC(=O)N[C@@H](C(=O)N[C@@H](C)C(=O)O)c3ccc(O)cc3)cc2S(=O)(=O)N1 [Example 12, 1,1-Dioxo-3,3-dibutyl-5-phenyl-7-methylthio-8-(N—{(R)-α-[N—((S)-1-carboxyethyl)carbamoyl]-4-hydroxybenzyl}carbamoylmethoxy)-2,3,4,5-tetrahydro-1,2,5-benzothiadiazepine] | 63 |
| CCCCC1(CCCC)CN(c2ccccc2)c2cc(SC)c(OCC(=O)N[C@@H](C(=O)N[C@H](C(=O)O)C(C)C)c3ccc(O)cc3)cc2S(=O)(=O)N1 [Example 13, 1,1-Dioxo-3,3-dibutyl-5-phenyl-7-methylthio-8-(N—{(R)-α-[N—((S)-1-carboxy-2-methylpropyl)carbamoyl]-4-hydroxybenzyl}carbamoylmethoxy)-2,3,4,5-tetra hydro-1,2,5-benzothiadiazepine] | 68 |
| CCCCC1(CCCC)CN(c2ccccc2)c2cc(SC)c(OCC(=O)N[C@@H](C(=O)NCC(=O)O)c3ccccc3)cc2S(=O)(=O)C1 [Example 14, 1,1-Dioxo-3,3-dibutyl-5-phenyl-7-methylthio-8-(N—{(R)-1′-phenyl-1′-[N′-(carboxymethyl)carbamoyl]methyl}carbamoylmethoxy)-2,3,4,5-tetrahydro-1,5-benzothiazepine] | 28 |

These molecules were tested against Ileal Bile Acid Transporter Human (Homo sapiens (Human), UniProt Q12908) (assay: ISBT Hu HEK Uptake SPA: glycocholic acid uptake, radiometric SPA). Details: human IBAT in HEK cells.
Assay type: cell-based
Method: ISBT Hu HEK Uptake SPA 13203 IBAT HUM Ileal Bile Acid Transporter Human HEK Glycocholic acid Uptake Radiometric—SPA Inhibitor IC50 Mean IC50 (nM) was determined for the compounds of examples 1-14

Sequence of Ileal Bile Acid Transporter Human (Q12908 whole entry): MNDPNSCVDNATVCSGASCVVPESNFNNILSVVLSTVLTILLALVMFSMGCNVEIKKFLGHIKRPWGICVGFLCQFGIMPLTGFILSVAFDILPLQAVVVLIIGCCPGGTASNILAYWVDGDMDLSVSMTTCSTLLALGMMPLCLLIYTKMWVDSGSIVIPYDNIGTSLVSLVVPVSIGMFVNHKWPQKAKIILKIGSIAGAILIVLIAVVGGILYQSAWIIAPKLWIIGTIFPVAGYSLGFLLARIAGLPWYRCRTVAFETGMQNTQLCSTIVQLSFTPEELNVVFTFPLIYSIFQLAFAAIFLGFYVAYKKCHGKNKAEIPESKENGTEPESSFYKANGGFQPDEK

| Structure (SMILES) | IC50 [nM] |
| --- | --- |
| CCCCC1(CCCC)CN(c2ccccc2)c2cc(SC)c(OCC(=O)N[C@@H](C(=O)N[C@H](C(=O)O)C(C)C)c3ccc(O)cc3)cc2S(=O)(=O)N1 [Example 13, 1,1-Dioxo-3,3-dibutyl-5-phenyl-7-methylthio-8-(N—{(R)-α-[N—((S)-1-carboxy-2-methylpropyl)carbamoyl]-4-hydroxybenzyl}carbamoylmethoxy)-2,3,4,5-tetra hydro-1,2,5-benzothiadiazepine] | 0.13 |

What follows are molecules tested on Mdr2−/− mice (assay: In vivo animal model of primary sclerosing cholangitis (Mdr2-/- mice)). Details: daily oral gavage for 2-4 weeks, vs vehicle.
Description: A genetic mice with targeted disruption of the Multidrug resistant Mdr2 (Abcb4) gene encoding a canalicular phospholipid flippase (Mdr2−/−mice) spontaneously develop sclerosing cholangitis with macroscopic and microscopic features of human Primary sclerosing cholangitis. Bile duct injury in these mice is linked to defective biliary phospholipid secretion resulting in an increased concentration of free non-micellar bile acids which subsequently cause bile duct epithelial cell (cholangiocyte) injury, pericholangitis, periductal fibrosis with ductular proliferation and finally sclerosing cholangitis. […] In analogy to the Mdr2−/− mouse model of sclerosing cholangitis, Multidrug resistant protein MDR3/ABCB4 (the human orthologue of rodent Mdr2/Abcb4) defects play a role in the pathogenesis of various cholangiopathies in humans. MDR3 variants play a role as a modifier gene in the pathogenesis of various cholangiopathies such as PSC, Primary Biliary cirrhosis (PBC) and adulthood idiopathic ductopenia/biliary fibrosis.
Mdr2−/− mice were given daily oral doses of the compound of Example 14 by gavage for 2-4 weeks and controls were dosed the vehicle in the same way. Serum liver tests, liver histology and fibrosis were investigated. The compound of Example 14 improves liver tests, liver histology and fibrosis.

| Structure (SMILES) | fibrosis | liver histology | liver tests (serum) |
| --- | --- | --- | --- |
| CCCCC1(CCCC)CN(c2ccccc2)c2cc(SC)c(OCC(=O)N[C@@H](C(=O)NCC(=O)O)c3ccccc3)cc2S(=O)(=O)C1 [Example 14, 1,1-Dioxo-3,3-dibutyl-5-phenyl-7-methylthio-8-(N—{(R)-1′-phenyl-1′-[N′-(carboxymethyl)carbamoyl]methyl}carbamoylmethoxy)-2,3,4,5-tetrahydro-1,5-benzothiazepine] | improves | improves | improves |
